Results from the NIST ThermoML archive (doi:10.1021/je060222y).
Several values for one entry are separate records, joined by “and”; a condition that tells them apart may be missing. Equal entries are not always repeated. Numbers after ± are expanded uncertainties.

Columns and labels:
[1] = for mass density: 101.33 kPa, Liquid; for Triple point temperature: Crystal
[2] = molar heat capacity at constant pressure; settings: 101.33 kPa, Liquid, Small sample (50 mg) DSC
[3] = Molar enthalpy of transition or fusion; settings: Crystal

Compound | mass density ([1]; 283.15 K) | mass density ([1]; 288.15 K) | mass density ([1]; 293.15 K) | mass density ([1]; 298.15 K) | mass density ([1]; 303.15 K) | mass density ([1]; 308.15 K) | mass density ([1]; 313.15 K) | mass density ([1]; 318.15 K) | mass density ([1]; 323.15 K) | Triple point temperature [1] | molar heat capacity at constant pressure ([2]; 283.15 K) | molar heat capacity at constant pressure ([2]; 288.15 K) | molar heat capacity at constant pressure ([2]; 293.15 K) | molar heat capacity at constant pressure ([2]; 298.15 K) | molar heat capacity at constant pressure ([2]; 303.15 K) | molar heat capacity at constant pressure ([2]; 308.15 K) | molar heat capacity at constant pressure ([2]; 313.15 K) | molar heat capacity at constant pressure ([2]; 318.15 K) | molar heat capacity at constant pressure ([2]; 323.15 K) | further results
CCCCn1cc[n+](C)c1.F[P-](F)(F)(F)(F)F [1-butyl-3-methylimidazolium hexafluorophosphate] | 1379.14 ± 1.5 kg/m3 | 1374.83 ± 1.4 kg/m3 | 1370.43 ± 1.4 kg/m3 | 1366.12 ± 1.4 kg/m3 | 1361.76 ± 1.4 kg/m3 | 1357.52 ± 1.4 kg/m3 | 1353.35 ± 1.4 kg/m3 | 1349.16 ± 1.4 kg/m3 | 1345.02 ± 1.4 kg/m3 | 280.03 ± 0.77 K | 400.9 ± 6.2 J/K/mol | 402.32 ± 6.2 J/K/mol | 404.97 ± 6.3 J/K/mol | 407.66 ± 6.3 J/K/mol | 410.33 ± 6.4 J/K/mol | 413.14 ± 6.4 J/K/mol | 415.98 ± 6.4 J/K/mol | 418.91 ± 6.5 J/K/mol | 421.88 ± 6.5 J/K/mol | Molar enthalpy of transition or fusion ([3]; DSC): 4.76 ± 0.139 kcal/mol
CCCC[n+]1ccn(C)c1.O=S(=O)([N-]S(=O)(=O)C(F)(F)F)C(F)(F)F | 1450.16 ± 1.7 kg/m3 and 1448.52 ± 1.7 kg/m3 | 1445.33 ± 1.7 kg/m3 and 1443.69 ± 1.7 kg/m3 | 1440.51 ± 1.7 kg/m3 and 1438.89 ± 1.6 kg/m3 | 1435.73 ± 1.7 kg/m3 and 1434.1 ± 1.6 kg/m3 | 1430.94 ± 1.7 kg/m3 and 1429.31 ± 1.6 kg/m3 | 1426.17 ± 1.6 kg/m3 and 1424.54 ± 1.6 kg/m3 | 1421.4 ± 1.6 kg/m3 and 1419.78 ± 1.6 kg/m3 | 1416.66 ± 1.6 kg/m3 and 1415.04 ± 1.6 kg/m3 | 1411.94 ± 1.6 kg/m3 and 1410.31 ± 1.6 kg/m3 | 268.51 ± 0.77 K and 267.61 ± 0.77 K | 558.99 ± 8.7 J/K/mol and 559.63 ± 8.7 J/K/mol | 561.29 ± 8.7 J/K/mol and 562.05 ± 8.7 J/K/mol | 564.02 ± 8.7 J/K/mol and 564.58 ± 8.8 J/K/mol | 566.47 ± 8.8 J/K/mol and 567.33 ± 8.8 J/K/mol | 569.01 ± 8.8 J/K/mol and 569.74 ± 8.8 J/K/mol | 572.11 ± 8.9 J/K/mol and 572.82 ± 8.9 J/K/mol | 575.03 ± 8.9 J/K/mol and 575.56 ± 8.9 J/K/mol | 577.84 ± 8.9 J/K/mol and 578.49 ± 9 J/K/mol | 581.06 ± 9 J/K/mol and 581.68 ± 9 J/K/mol | mass density ([1]; 278.15 K): 1454.98 ± 1.7 kg/m3 and 1453.33 ± 1.7 kg/m3; mass density ([1]; 328.15 K): 1407.23 ± 1.6 kg/m3 and 1405.6 ± 1.6 kg/m3; mass density ([1]; 333.15 K): 1402.55 ± 1.6 kg/m3 and 1400.92 ± 1.5 kg/m3; molar heat capacity at constant pressure ([2]; 328.15 K): 584.36 ± 9.1 J/K/mol and 584.82 ± 9.1 J/K/mol; Molar enthalpy of transition or fusion [3]: 5.36 kcal/mol and 5.86 kcal/mol
